# Reference: patent US20150224164A1, “TREATMENT OF AUTISM SPECTRUM DISORDERS USING GLYCYL-L-2-METHYLPROLYL-L-GLUMATIC ACID” (Neuren Pharmaceuticals Limited, priority 2013, published 2015)
# Entries after “also recorded” stand apart in the source; their conditions may differ. Where a SMILES comes first, the peptide text is derived from it.
# What was measured:
# [1] = tested on: ChAT-positive neurons in the striatum; assay: ChAT immunohistochemistry in striatum of aging rats; assay type: in vivo, rat; conditions: single s.c. dose 0.012-12 mg/kg; 18-month old rats; 3 days after treatment
# Experimental: Eighteen-month old male rats received one of five treatments. A control group was treated with vehicle (saline alone (n=4) and four groups were treated with a single dose of G-2-MePE. […] Rats were sacrificed with an overdose of pentobarbital 3 days after drug treatment. Brains were perfused with normal saline and 4% paraformaldehyde and fixed in perfusion fixative overnight. Brains were stored in 25% sucrose in 0.1M PBS (pH7.4) until the tissue sank. Frozen coronal sections of striatum were cut with a microtome and stored in 0.1% sodium azide in 0.1M PBS at 4° C. Immunoreactivity for choline acetyltransferase (ChAT) was established by staining using a free floating section method. Briefly, antibodies were diluted in 1% goat serum. The sections were incubated in 0.2% triton in 0.1M PBS/Triton™ at 4° C. overnight before Immunohistochemical staining. The sections were pre-treated with 1% H2O2 in 50% methanol for 20 min. The sections were then incubated with rabbit (Rb) anti-ChAT (1:5000) antibodies (the primary antibodies) in 4D on a shaker for two days. The sections were washed using PBS/Triton™ (15 minutes×3d) and then incubated with goat anti-rabbit biotinylated secondary antibodies (1:1000) at room temperature overnight. […] The size of the striatal region used for the count was measured using an image analyser. […] Data were analysed using a paired t-test and presented as mean+/−SEM.
# [2] = tested on: layer 5 cortical neurons of MeCP2-/y mice; assay: Whole-cell recordings of spontaneous EPSCs in acute brain slices (Example 10); assay type: in vivo, mouse; conditions: 20 mg/kg i.p. daily P15 to P28-P32; vs vehicle
# Experimental: For the survival measurements, the nocturnal activity analysis and the immunoblot analysis, G-2-MePE (synthesised Albany Molecular Research Inc. (Albany, N.Y.) and supplied by Neuren Pharmaceuticals Limited) is administered daily via intra-peritoneal injections (20 mg/kg, vehicle=saline, 0.01% BSA). The treatment starts at P15 and is maintained throughout the course of the experiments. For intracellular physiology experiments, the mice are injected daily with G-2-MePE (20 mg/kg body weight, vehicle=saline, 0.01% BSA) for 2 weeks, from P15 to P28-P32 when they are used for acute slice preparation. For optical imaging experiments, mice are injected with G-2-MePE (20 mg/kg body weight, vehicle=saline, 0.01% BSA) daily from the day of the lid suture to the day of imaging. […]
# Borosilicate pipettes (3-5 MΩ, WPI) are pulled using a Sutter P-80 puller (Sutter Instruments). Cells are visualized with an Achroplan 40× water-immersion lens with infrared-DIC optics (Zeiss) and detected with an infrared camera (Hamamatsu) projecting to a video monitor. […] Then in current clamp ˜10 pulses (500 ms, 40-140 pA at 10 pA increments), are applied to quantify evoked firing rates and cellular excitability. […] Analysis is performed using a custom software package written in Matlab, with all events detected according to automated thresholds and blindly verified for each event individually by the experimenter.
# [3] = tested on: MeCP2-/y mice; assay: Life span (Example 10); assay type: in vivo, mouse; conditions: 20 mg/kg i.p. daily from P15; vs MeCP2 KO littermates
# Experimental: For the survival measurements, the nocturnal activity analysis and the immunoblot analysis, G-2-MePE (synthesised Albany Molecular Research Inc. (Albany, N.Y.) and supplied by Neuren Pharmaceuticals Limited) is administered daily via intra-peritoneal injections (20 mg/kg, vehicle=saline, 0.01% BSA). The treatment starts at P15 and is maintained throughout the course of the experiments. For intracellular physiology experiments, the mice are injected daily with G-2-MePE (20 mg/kg body weight, vehicle=saline, 0.01% BSA) for 2 weeks, from P15 to P28-P32 when they are used for acute slice preparation. For optical imaging experiments, mice are injected with G-2-MePE (20 mg/kg body weight, vehicle=saline, 0.01% BSA) daily from the day of the lid suture to the day of imaging.
# [4] = tested on: subjects with Rett Syndrome; assay: Placebo controlled study in subjects with Rett Syndrome (Example 15); assay type: in vivo, human
# From the text: Thirty subjects with Rett Syndrome are recruited. Subjects are female and aged between […] (Mean=12.1 SD=4.4). All subjects have an IQ<60 and mutations of the MECP2 gene. Subjects also show ether spike activity in the EEG or an increase in lower frequency bands of the EEG as detected by Fast Fourier Transform (FFT). Subjects are instructed that concomitant medications are to be stable for at least six weeks prior to study. Subjects receiving medication to treat signs of inattention are tested in the morning and instructed to take their medication in the afternoon. Subjects with QTc interval >451 msec are excluded.
# The study is a randomized double blind placebo controlled parallel study with three doses of either placebo, 10 mg/kg T.I.D oral G-2-MePE for five days, or 30 mg/kg T.I.D. oral G-2-MePE.
# Subjects are tested at baseline using the following instruments: The Rett Syndrome Natural History/Clinical Severity Scale, Aberrant Behavior Checklist Community Edition (ABC), Vinelands, Clinical Global Impression of Severity (CGI-S) and their carers completed the Caregiver Strain Questionnaire (CSQ).
# Subjects are brought into clinic on an inpatient basis to enable initial baseline recordings of EEG, ECG and respiratory rate continuously for 24 hours using polysomnography technology. Hand movements are also recorded using the Q-Sensor™. Derived EEG measures include: spikes per unit time in the EEG, overall power of frequency bands of the EEG, QTc and heart rate variability (HRV), and respiratory irregularities.
# Adverse events are also recorded using standard safety measures and the SMURF elicitation of adverse events
# Statistically, the effect of treatment with G-2-MePE is analysed by conducting a repeated analysis of covariance (ANCOVA) on the effect of treatment on change from baseline scores.
# [5] = 30 mg/kg T.I.D. oral vs placebo
smiles,measurement,setting,value
"C[C@@]1(C(=O)N[C@@H](CCC(=O)O)C(=O)O)CCCN1C(=O)CN [Example G-2-MePE, Glycyl-L-2-methylprolyl-L-glutamic acid] (HELM PEPTIDE1{G.[C[C@@]1(C(=O)[*:2])CCCN1[*:1]].E}$$$$V2.0)",number of ChAT-immunopositive neurons,[1],increased
same,spontaneous EPSC amplitude,[2],significantly larger in amplitude
same,increase in life expectancy (0.5 probability survival rate),[3],~50%
same,EEG spike activity,[4]; [5],decreases spike activity
same,power of the delta band of the EEG,[4]; [5],decreases the power of the delta band
same,"subscales Nonverbal Communication, Epilepsy/Seizures, Hand use",[4]; [5],significant effects
same,Serious Adverse Events,[4]; 10 or 30 mg/kg T.I.D. oral,No Serious Adverse Events
same,adverse events / tolerability,[4]; 10 or 30 mg/kg T.I.D. oral,no more adverse events than are present during treatment with placebo; also recorded: well tolerated
same,increases in QTC,[4]; 10 or 30 mg/kg T.I.D. oral,No instances of increases in QTC
same,respiratory rate or heart rate variability,[4]; 10 or 30 mg/kg T.I.D. oral,No effects
same,"Rett Syndrome Natural History/Clinical Severity Score, overall","[4]; human, in vivo",no significant effect overall
same,"spikes per unit time in the EEG, overall",[4]; overall treatment effect,significant overall reduction
same,total hand movements per twenty-four hour period (Q-Sensor),[4]; significant for 30 mg/kg T.I.D.,reduces total hand movements
